For data set [1] the following is noted: 25° C.; cited from earlier work.
The procedure of data set [2]: For facilitating the interpretation of obtained results, the stress conditions of described studies should be converted to the condition of the currently running long term stability program for an eye drop formulation. For this purpose, the values of pH drop for stock formulations stored in glass containers from the study were compared with pH drop profile for a clinical batch stored at 25° C. in LDPE plastic containers without antioxidant (STS).

The source of these data is US12403147B2, “Treatment of ocular inflammation following ocular surgery” (Oculis Operations Sàrl, priority 2019, dated 2025).

≈ marks a conversion by molar mass, not a printed value.

Turning to `OC[C@H]1O[C@@H]2O[C@H]3[C@H](O)[C@@H](O)[C@@H](O[C@H]4[C@H](O)[C@@H](O)[C@@H](O[C@H]5[C@H](O)[C@@H](O)[C@@H](O[C@H]6[C@H](O)[C@@H](O)[C@@H](O[C@H]7[C@H](O)[C@@H](O)[C@@H](O[C@H]8[C@H](O)[C@@H](O)[C@@H](O[C@H]9[C@H](O)[C@@H](O)[C@@H](O[C@H]1[C@H](O)[C@H]2O)O[C@@H]9CO)O[C@@H]8CO)O[C@@H]7CO)O[C@@H]6CO)O[C@@H]5CO)O[C@@H]4CO)O[C@@H]3CO` [γ-cyclodextrin], the “solubility in pure water” value in data set [1] was 249.2 ± 0.2 mg/mL (≈ 192 mM).
Turning to DL-Tartaric acid, the “storage time during which the antioxidant can stabilize the formulation” value in data set [2] is listed as “at least 1 year”.
As to `OC[C@H]1O[C@@H]2O[C@H]3[C@H](O)[C@@H](O)[C@@H](O[C@H]4[C@H](O)[C@@H](O)[C@@H](O[C@H]5[C@H](O)[C@@H](O)[C@@H](O[C@H]6[C@H](O)[C@@H](O)[C@@H](O[C@H]7[C@H](O)[C@@H](O)[C@@H](O[C@H]1[C@H](O)[C@H]2O)O[C@@H]7CO)O[C@@H]6CO)O[C@@H]5CO)O[C@@H]4CO)O[C@@H]3CO` [α-cyclodextrin], in data set [1], the “solubility in pure water” value is 129.5 ± 0.7 mg/mL (≈ 133 mM).
